Among the data in patent US8575135B2 (Gilead Sciences, Inc., priority 2011, dated 2013) are bioavailability and EC50 values, retold here.

Data set [1] in a line: IV and PO single dose pharmacokinetic studies in SD rats. The data set is classed as in vivo. Conditions: male, Sprague-Dawley, rat, plasma, IV infusion 1 mg/kg vs oral gavage 2 mg/kg, read-out: Rat % F.
The subject of data set [2] is stable HCV 1b RLuc replicon cells (genotype 1b Con1 replicon). The experiment in a line: microbe, parasite or virus in culture. The data set is classed as cell-based. Conditions: Hepatitis C virus, read-out: 1b (nM).
The subject of data set [3] is stable HCV 1a RLuc replicon cells (genotype 1a H77 replicon). The experiment in a line: microbe, parasite or virus in culture. The data set is classed as cell-based. To be noted: Hepatitis C virus.
For data set [4], the system named is NS5A chimeric genotype 1b Con1 replicon with genotype 3a S52 strain NS5A gene. The experiment in a line: microbe, parasite or virus in culture. The data set is classed as cell-based, HCV. Conditions: Hepatitis C virus. The method, boiled down:
(§1)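 Con1-based 3a and 4a chimeras carried a Pi-RLuc reporter and were transiently transfected into Huh-Lunet cells; the JFH-1-based 2b chimera (RLuc-Neo) was used transiently or as stable replicon cells.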

Data set [5] deals with NS5A chimeric genotype 2a JFH-1 replicon with genotype 2a J6 strain NS5A gene (M31 present). Briefly: microbe, parasite or virus in culture. The data set is classed as cell-based, HCV. To be noted: Hepatitis C virus.
In data set [6] the test system is NS5A chimeric genotype 2a JFH-1 replicon with genotype 2b MD2b-1 strain NS5A gene (M31 present). The experiment in a line: microbe, parasite or virus in culture. The data set is classed as cell-based, HCV. To be noted: Hepatitis C virus. The method, boiled down:
as §1

The subject of data set [7] is 1a Pi-Rluc replicon with Q30R in genotype 1a NS5A. Briefly: microbe, parasite or virus in culture. Format: cell-based, HCV. Conditions: Hepatitis C virus. The method, boiled down: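 Renilla luciferase replicon assay: 1a Pi-RLuc replicon carrying NS5A Q30R, transfected transiently into cured-51 (Huh-7-derived) cells.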
In data set [8] the test system is stable HCV 2a JFH-1 Rluc replicon cells (L31 present in NS5A). The experiment in a line: microbe, parasite or virus in culture. The data set is classed as cell-based. To be noted: Hepatitis C virus.
In data set [9] the test system is NS5A chimeric genotype 1b Con1 replicon with genotype 4a ED43 strain NS5A gene. The experiment in a line: microbe, parasite or virus in culture. Format: cell-based, HCV. Conditions: Hepatitis C virus.

Where two headings read alike, the source gives them in different places.

With `CCC(C)[C@H](NC(=O)OC)C(=O)N1C[C@@H](C)CC1c1ncc(-c2ccc3c(c2)COc2cc4c(ccc5nc([C@@H]6CC(COC)CN6C(=O)[C@H](NC(=O)OC)c6ccccc6)[nH]c54)cc2-3)[nH]1` (stereo in doubt) [Example QB, Methyl {(1R)-2-[(2S,4S)-2-(9-{2-[(2S,4S)-1-{(2S,3R)-2-[(methoxycarbonyl)amino]-3-methylpentanoyl}-4-methylpyrrolidin-2-yl]-1H-imidazol-5-yl}-1,11-dihydroisochromeno[4′,3′:6,7]naphtho[1,2-d]imidazol-2-yl)-4-(methoxymethyl)pyrrolidin-1-yl]-2-oxo-1-phenylethyl}carbamate], in data set [1], the bioavailability was 9.56%. Also, the EC50 in data set [2] was 0.011 nM; in data set [3] (read-out: 1a) it was less than 1 nM; in data set [3] (read-out: 1a (nM)), 0.011 nM; in data set [4] (read-out: 3a) it was less than 1 nM; in data set [4] (read-out: 3a (nM)), 0.028 nM; in data set [5] (read-out: 2a J6), less than 1 nM. Further, the EC50 in [5] (read-out: 2a Jb (t) (nM)) was 0.021 nM; in data set [6] (read-out: 2b), less than 1 nM; in data set [6] (read-out: 2b (t) (nM)), 0.022 nM; in [7] (read-out: 1a Q30R), less than 1 nM; in data set [7] (read-out: 1a Q30R (nM)), 0.029 nM; in data set [8] (read-out: 2a JFH), less than 1 nM. The EC50 in [8] (read-out: 2a JFH (nM)) was found to be 0.008 nM.

On to `COC[C@H]1C[C@@H](c2nc3ccc4cc5c(cc4c3[nH]2)OCc2cc(-c3cnc([C@@H]4CC[C@H](C)N4C(=O)[C@@H](NC(=O)OC)C(C)C)[nH]3)ccc2-5)N(C(=O)[C@H](NC(=O)OC)c2ccccc2)C1` [Example NP, Methyl {(2S)-1-[(2S,5S)-2-(5-{2-[(2S,4S)-1-{(2R)-2-[(methoxycarbonyl)amino]-2-phenylacetyl}-4-(methoxymethyl)pyrrolidin-2-yl]-1,11 dihydroisochromeno[4′,3′:6,7]naphtho[1,2-d]imidazol-9-yl}-1H-imidazol-2-yl)-5-methylpyrrolidin-1-yl]-3-methyl-1-oxobutan-2-yl}carbamate], for which the EC50 in [9] (read-out: 4a) is less than 1 nM; in [9] (read-out: 4a (s) (nM)), 0.028 nM; in data set [3] (read-out: 1a), less than 1 nM; in data set [3] (read-out: 1a (nM)), 0.014 nM; in data set [4] (read-out: 3a), less than 1 nM; in data set [4] (read-out: 3a (nM)) it was 0.02 nM. For the same compound, the EC50 was less than 1 nM in data set [5] (read-out: 2a J6); 0.096 nM in [5] (read-out: 2a J6 (s) (nM)); 0.01 nM in data set [5] (read-out: 2a Jb (t) (nM)); less than 1 nM in data set [6] (read-out: 2b); 0.043 nM in data set [6] (read-out: 2b (s) (nM)); 0.011 nM in [6] (read-out: 2b (t) (nM)). The EC50 is less than 1 nM in data set [7] (read-out: 1a Q30R), 0.032 nM in [7] (read-out: 1a Q30R (nM)), less than 1 nM in [8] (read-out: 2a JFH) and 0.007 nM in data set [8] (read-out: 2a JFH (nM)). In addition, in [1], the bioavailability stood at 26.1%.

Take `COC[C@H]1C[C@@H](c2nc3ccc4cc5c(cc4c3[nH]2)OCc2cc(-c3cnc([C@@H]4C[C@H](C)CN4C(=O)[C@H](NC(=O)OC)c4ccccc4)[nH]3)ccc2-5)N(C(=O)[C@@H](NC(=O)OC)C(C)C)C1` [Example PF, methyl {1-[2-{9-[2-(1-{[(methoxycarbonyl)amino](phenyl)acetyl}-4-methylpyrrolidin-2-yl)-1H-imidazol-5-yl]-1,11-dihydroisochromeno[4′,3′:6,7]naphtho[1,2-d]imidazol-2-yl}-4-(methoxymethyl)pyrrolidin-1-yl]-3-methyl-1-oxobutan-2-yl}carbamate]: the EC50 was less than 1 nM in [9] (read-out: 4a); 0.018 nM in [9] (read-out: 4a (s) (nM)); 0.05 nM in data set [9] (read-out: 4a (t) (nM)); less than 1 nM in [3] (read-out: 1a); 0.032 nM in data set [3] (read-out: 1a (nM)); less than 1 nM in data set [4] (read-out: 3a). In addition, the EC50 in [4] (read-out: 3a (nM)) was 0.072 nM; in data set [5] (read-out: 2a J6) it was less than 1 nM; in [5] (read-out: 2a J6 (s) (nM)), 0.127 nM; in data set [5] (read-out: 2a Jb (t) (nM)) it was 0.025 nM; in [6] (read-out: 2b), less than 1 nM; in data set [6] (read-out: 2b (s) (nM)) it was 0.117 nM. For the same compound, the EC50 was 0.023 nM in [6] (read-out: 2b (t) (nM)); less than 1 nM in [7] (read-out: 1a Q30R); 0.034 nM in [7] (read-out: 1a Q30R (nM)); less than 1 nM in [8] (read-out: 2a JFH); 0.014 nM in data set [8] (read-out: 2a JFH (nM)). Moreover, in [1], the bioavailability turned out to be 4.3%.

For `COC[C@H]1C[C@@H](c2ncc(-c3ccc4c(c3)COc3cc5c(ccc6nc([C@@H]7CC[C@H](C)N7C(=O)[C@@H](NC(=O)OC)[C@@H](C)OC)[nH]c65)cc3-4)[nH]2)N(C(=O)[C@@H](NC(=O)OC)C(C)C)C1` [Example PI, methyl {(2S)-1-[(2S,4S)-2-(5-{2-[(2S,5S)-1-{(2S,3R)-3-methoxy-2-[(methoxycarbonyl)amino]butanoyl}-5-methylpyrrolidin-2-yl]-1,11-dihydroisochromeno[4′,3′:6,7]naphtho[1,2-d]imidazol-9-yl}-1H-imidazol-2-yl)-4-(methoxymethyl)pyrrolidin-1-yl]-3-methyl-1-oxobutan-2-yl}carbamate], in data set [1], the bioavailability was determined as 8.7%. For the same compound, the EC50 in data set [2] was 0.039 nM; in data set [3] (read-out: 1a) it was less than 1 nM; in data set [3] (read-out: 1a (nM)), 0.031 nM; in data set [4] (read-out: 3a), less than 1 nM; in data set [4] (read-out: 3a (nM)), 0.065 nM; in [5] (read-out: 2a J6) it was less than 1 nM. Further, the EC50 in data set [5] (read-out: 2a Jb (t) (nM)) was 0.129 nM; in [6] (read-out: 2b), less than 1 nM; in data set [6] (read-out: 2b (t) (nM)), 0.09 nM; in data set [7] (read-out: 1a Q30R) it was less than 1 nM; in data set [7] (read-out: 1a Q30R (nM)), 0.094 nM; in [8] (read-out: 2a JFH), less than 1 nM. Moreover, the EC50 in [8] (read-out: 2a JFH (nM)) was 0.02 nM.

Regarding `COC[C@H]1C[C@@H](c2ncc(-c3ccc4c(c3)COc3cc5c(ccc6nc([C@@H]7CC[C@H](C)N7C(=O)[C@@H](NC(=O)OC)C(C)C)[nH]c65)cc3-4)[nH]2)N(C(=O)[C@H](NC(=O)OC)c2ccccc2)C1` [Example PY, Methyl {(2S)-1-[(2S,5S)-2-(9-{2-[(2S,4S)-1-{(2R)-2-[(methoxycarbonyl)amino]-2-phenylacetyl}-4-(methoxymethyl)pyrrolidin-2-yl]-1H-imidazol-5-yl}-1,11-dihydroisochromeno[4′,3′:6,7]naphtho[1,2-d]imidazol-2-yl)-5-methylpyrrolidin-1-yl]-3-methyl-1-oxobutan-2-yl}carbamate], the EC50 is less than 1 nM in data set [9] (read-out: 4a); 0.018 nM in data set [9] (read-out: 4a (s) (nM)); less than 1 nM in data set [3] (read-out: 1a); 0.012 nM in [3] (read-out: 1a (nM)); less than 1 nM in [4] (read-out: 3a); 0.017 nM in [4] (read-out: 3a (nM)). Also, the EC50 in [5] (read-out: 2a J6) was less than 1 nM; in data set [5] (read-out: 2a J6 (s) (nM)), 0.098 nM; in [5] (read-out: 2a Jb (t) (nM)), 0.009 nM; in [6] (read-out: 2b), less than 1 nM; in data set [6] (read-out: 2b (s) (nM)), 0.03 nM; in data set [6] (read-out: 2b (t) (nM)), 0.007 nM. Moreover, the EC50 in data set [7] (read-out: 1a Q30R) is less than 1 nM; in data set [7] (read-out: 1a Q30R (nM)), 0.013 nM; in data set [8] (read-out: 2a JFH) it was less than 1 nM; in data set [8] (read-out: 2a JFH (nM)), 0.006 nM. The bioavailability in data set [1] was found to be 27.7%.

Regarding `COC[C@H]1C[C@@H](c2ncc(-c3ccc4c(c3)COc3cc5c(ccc6nc([C@@H]7CC[C@H](C)N7C(=O)[C@@H](NC(=O)OC)C(C)C)[nH]c65)cc3-4)[nH]2)N(C(=O)[C@@H](NC(=O)OC)[C@H](C)OC)C1` [Example QA, Methyl {(2S)-1-[(2S,5S)-2-(9-{2-[(2S,4S)-1-{(2S,3S)-3-methoxy-2-[(methoxycarbonyl)amino]butanoyl}-4-(methoxymethyl)pyrrolidin-2-yl]-1H-imidazol-5-yl}-1,11-dihydroisochromeno[4′,3′:6,7]naphtho[1,2-d]imidazol-2-yl)-5-methylpyrrolidin-1-yl]-3-methyl-1-oxobutan-2-yl}carbamate], the bioavailability in [1] stood at 7.46%. Moreover, the EC50 in [2] was 0.013 nM; in data set [3] (read-out: 1a) it was less than 1 nM; in data set [3] (read-out: 1a (nM)), 0.012 nM; in data set [4] (read-out: 3a), less than 1 nM; in data set [4] (read-out: 3a (nM)) it was 0.038 nM; in data set [5] (read-out: 2a J6), less than 1 nM. The EC50 in data set [5] (read-out: 2a Jb (t) (nM)) is 0.094 nM; in data set [6] (read-out: 2b) it was less than 1 nM; in data set [6] (read-out: 2b (s) (nM)), 0.04 nM; in [6] (read-out: 2b (t) (nM)), 0.052 nM; in [7] (read-out: 1a Q30R), less than 1 nM; in [7] (read-out: 1a Q30R (nM)) it was 0.045 nM. Also, the EC50 in data set [8] (read-out: 2a JFH) is less than 1 nM; in [8] (read-out: 2a JFH (nM)) it was 0.007 nM.
